A word on the Ki: it is the equilibrium dissociation constant of an inhibitor or competing ligand from its target.

Ki data for 36 compounds are collected here from patent US7851474B2, “Dipiperazinyl ketones and related analogues” (Neurogen Corporation, priority 2005, dated 2010).

Read-outs that look alike come from different tables or passages of the source. Bounds are passed on as bounds.

The target in this assay is T1, chimeric human H3 receptor (Homo sapiens, UniProt Q9Y5N1, E19D).
T1 construct: made in house; host or cells: Sf9 insect cells (baculovirus infection); P2 membrane preparation
Nature of the assay: Chimeric human H3 receptor GTP binding assay (agonist-stimulated GTP-gamma35S binding, Example 7). Type of assay: biochemical. The procedure, abridged: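 Sf9 membranes co-expressing the chimeric receptor and heterotrimeric G-protein subunits, 35 μg protein per tube, in pH 7.4 Tris buffer with 10 μM GDP. Test compounds at 10^−10 to 10^−6 M with 1 μM histamine, 60 min at room temperature. Filter-bound GTP-gamma^35S read by scintillation; IC50 from non-linear regression of dose-response curves.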
(In general: GTPγS resists hydrolysis and so accumulates on activated G proteins.)

The mark [1] stands for this setting: "*" in Ki of Table II, assay of Example 7, read-out: Ki.
Setting [2] is: Table II, assay of Example 7, "*" in Ki, read-out: Ki.
[3] abbreviates: Table II "Ki", symbol "*": Ki in the assay of Example 7, read-out: Ki.
Setting [4] is: assay of Example 7, symbol * in column headed Ki of Table II, read-out: Ki.
The mark [5] stands for this setting: Table II, "*" in Ki, assay of Example 7, read-out: Ki.

T1 sequence (Q9Y5N1 with tags, fused parts or gaps E19D): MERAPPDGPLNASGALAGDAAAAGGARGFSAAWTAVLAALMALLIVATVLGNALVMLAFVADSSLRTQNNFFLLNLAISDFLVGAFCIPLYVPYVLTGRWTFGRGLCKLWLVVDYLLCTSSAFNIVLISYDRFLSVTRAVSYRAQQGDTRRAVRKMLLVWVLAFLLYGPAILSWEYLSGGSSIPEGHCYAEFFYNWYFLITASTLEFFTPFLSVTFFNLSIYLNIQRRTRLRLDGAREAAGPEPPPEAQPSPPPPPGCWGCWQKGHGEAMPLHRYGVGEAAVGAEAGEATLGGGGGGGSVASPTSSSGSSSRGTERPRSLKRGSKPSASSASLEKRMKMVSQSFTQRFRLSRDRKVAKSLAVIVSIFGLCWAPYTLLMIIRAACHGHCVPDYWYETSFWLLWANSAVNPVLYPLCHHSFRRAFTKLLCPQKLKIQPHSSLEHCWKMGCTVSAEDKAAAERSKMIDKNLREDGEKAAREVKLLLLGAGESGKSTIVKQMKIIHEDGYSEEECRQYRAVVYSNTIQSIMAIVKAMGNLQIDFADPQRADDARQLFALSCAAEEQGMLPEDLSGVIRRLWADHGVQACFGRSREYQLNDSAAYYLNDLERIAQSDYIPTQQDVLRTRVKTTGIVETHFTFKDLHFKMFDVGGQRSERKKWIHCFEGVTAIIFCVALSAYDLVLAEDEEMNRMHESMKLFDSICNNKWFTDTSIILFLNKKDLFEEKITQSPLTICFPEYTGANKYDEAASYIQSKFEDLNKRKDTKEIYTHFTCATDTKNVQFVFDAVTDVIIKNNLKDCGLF

With `COc1ccccc1CC(=O)N1CCN(CC(=O)N2CCN(C3CCC3)CC2)CC1` [Compound 536, 1-cyclobutyl-4-({4-[(2-methoxyphenyl)acetyl]piperazin-1-yl}acetyl)piperazine], the Ki under setting [1] is below 1000 nM.

With `N#Cc1ccc(-c2ccc(N3CCN(CC(=O)N4CCN(C5CCC5)CC4)CC3)cc2)cc1` [Compound 1119, 4′-{1-[2-(4-cyclobutylpiperazin-1-yl)-2-oxoethyl]piperazin-1-yl}biphenyl-4-carbonitrile], the Ki under setting [2] is below 1000 nM.

Regarding `Cc1ccc(N2CCN(CC(=O)N3CCN(C4CCC4)CC3)CC2)cc1` [Compound 785, 1-cyclobutyl-4-{[4-(4-methylphenyl)piperazin-1-yl]acetyl}piperazine], under setting [3], the Ki is below 1000 nM.

Turning to `CCC(C)N1CCN(C(=O)CN2CCN(c3ccc(OC)cc3)CC2)CC1` (stereo not drawn) [Compound 881, 1-sec-butyl-4-{[4-(4-methoxyphenyl)piperazin-1-yl]acetyl}piperazine], the inhibition constant Ki under setting [3] was below 1000 nM.

Turning to `COc1cccc(-c2cnc(N3CCN(CC(=O)N4CCN(C5CCC5)CC4)CC3)cn2)c1` [Compound 933, 2-{4-[2-(4-cyclobutylpiperazin-1-yl)-2-oxoethyl]piperazin-1-yl}-5-(3-methoxyphenyl)pyrazine], the Ki under setting [3] was below 1000 nM.

For the compound `Cc1ccc(N2CCN(CC(=O)N3CCN(C4CCCC4)CC3)CC2)c(C)c1` [Compound 834, 1-cyclopentyl-4-{[4-(2,4-dimethylphenyl)piperazin-1-yl]acetyl}piperazine], under setting [3], the Ki is below 1000 nM.

Consider `N#Cc1ccc(-c2ccc(N3CCN(CC(=O)N4CCN(C5CCC5)CC4)CC3)nn2)cc1` [Compound 1100, 4-(6-{4-[2-(4-cyclobutylpiperazin-1-yl)-2-oxoethyl]piperazin-1-yl}pyridazin-3-yl)benzonitrile], for which, under setting [2], the Ki was below 1000 nM.

For the compound `CCCOc1ccc(-c2cnc(N3CCN(CC(=O)N4CCN(C5CCC5)CC4)CC3)cn2)cc1` [Compound 949, 2-{4-[2-(4-cyclobutylpiperazin-1-yl)-2-oxoethyl]piperazin-1-yl}-5-(4-propoxyphenyl)pyrazine], the Ki under setting [2] is below 1000 nM.

As to `CCCc1ccc(-c2ccc(N3CCN(CC(=O)N4CCN(C5CCC5)CC4)CC3)nn2)cc1` [Compound 1018, 3-{4-[2-(4-cyclobutylpiperazin-1-yl)-2-oxoethyl]piperazin-1-yl}-6-(4-propylphenyl)pyridazine], the Ki under setting [2] was below 1000 nM.

On to `O=C(CN1CCN(c2ccc(-c3ccc(Oc4ccccc4)cc3)cc2)CC1)N1CCN(C2CCC2)CC1` [Compound 787, 1-cyclobutyl-4-{[4-(4′-phenoxybiphenyl-4-yl)piperazin-1-yl]acetyl}piperazine], for which the Ki under setting [3] was below 1000 nM.

As to `CC(=O)c1ccc(N2CCN(CC(=O)N3CCN(C4CCCC4)CC3)CC2)nc1` [Compound 373, 1-(6-{4-[2-(4-cyclopentylpiperazin-1-yl)-2-oxoethyl]piperazin-1-yl}pyridin-3-yl)ethanone], the Ki under setting [4] was below 1000 nM.

`O=C(CN1CCN(c2ccc(-c3ccc(Cl)c(Cl)c3)cc2)CC1)N1CCN(C2CCC2)CC1` [Compound 727, 1-cyclobutyl-4-{[4-(3′,4′-dichlorobiphenyl-4-yl)piperazin-1-yl]acetyl}piperazine]: the Ki under setting [5] is below 1000 nM.

With `O=C(CN1CCN(c2ccc(-c3ccc4ccccc4c3)nn2)CC1)N1CCN(C2CCC2)CC1` [Compound 1006, 3-{4-[2-(4-cyclobutylpiperazin-1-yl)-2-oxoethyl]piperazin-1-yl}-6-(2-naphthyl)pyridazine], the Ki under setting [2] is below 1000 nM.

As for `O=C(CN1CCN(c2ccc(-c3cc(C(F)(F)F)cc(C(F)(F)F)c3)cc2)CC1)N1CCN(C2CCC2)CC1` [Compound 457, 1-[3′,5′-bis(trifluoromethyl)biphenyl-4-yl]-4-[2-(4-cyclobutylpiperazin-1-yl)-2-oxoethyl]piperazine], the Ki under setting [1] was below 1000 nM.

For the compound `CCN(C(=O)c1cccc(N2CCN(CC(=O)N3CCN(C4CCC4)CC3)CC2)c1)C1CCCCC1` [Compound 1069, 3-{4-[2-(4-cyclobutylpiperazin-1-yl)-2-oxoethyl]piperazin-1-yl}-N-cyclohexyl-N-ethylbenzamide], the Ki under setting [2] was below 1000 nM.

Take `O=C(CN1CCN(c2ccc(-c3ccccc3)nn2)CC1)N1CCN(C2CCC2)CC1` [Compound 1002, 3-{4-[2-(4-cyclobutylpiperazin-1-yl)-2-oxoethyl]piperazin-1-yl}-6-phenylpyridazine]: the Ki under setting [2] was below 1000 nM.

Turning to `O=C(CN1CCN(c2ccc(-c3ccc(Cl)c(F)c3)nn2)CC1)N1CCN(C2CCC2)CC1` [Compound 990, 3-(4-chloro-3-fluorophenyl)-6-{4-(2-(4-cyclobutylpiperazin-1-yl)-2-oxoethyl]piperazin-1-yl}pyridazine], under setting [2], the Ki was below 1000 nM.

In the case of `Cc1cccc(-c2ccc(N3CCN(CC(=O)N4CCN(C5CCC5)CC4)CC3)cc2)c1` [Compound 762, 1-cyclobutyl-4-{[4-(3′-methylbiphenyl-4-yl)piperazin-1-yl]acetyl}piperazine], under setting [5], the Ki is below 1000 nM.

For the compound `CCCCN1CCN(C(=O)CN2CCN(c3ccc(C(F)(F)F)cc3)CC2)CC1` [Compound 496, 1-butyl-4-({4-[4-(trifluoromethyl)phenyl]piperazin-1-yl}acetyl)piperazine], the Ki is below 1000 nM.

Consider `Cc1ccccc1OC(C)C(=O)N1CCN(CC(=O)N2CCN(C3CCC3)CC2)CC1` (stereo not drawn) [Compound 573, 1-cyclobutyl-4-({4-[2-(2-methylphenoxy)propanoyl]piperazin-1-yl}acetyl)piperazine], for which the Ki under setting [1] is below 1000 nM.

As for `O=C(CN1CCN(c2ccc(C(=O)N3CCOCC3)cc2)CC1)N1CCN(C2CCC2)CC1` [Compound 1093, 4-(4-{4-[2-(4-cyclobutylpiperazin-1-yl)-2-oxoethyl]piperazin-1-yl}benzoyl)morpholine], under setting [2], the Ki was below 1000 nM.

Consider `CCCCNC(=O)c1cccc(N2CCN(CC(=O)N3CCN(C4CCC4)CC3)CC2)c1` [Compound 1263, N-butyl-3-{4-[2-(4-cyclobutylpiperazin-1-yl)-2-oxoethyl]piperazin-1-yl}benzamide], for which, where the note is “assay of Example 7, "*" in Ki of Table II, read-out: Ki”, the Ki is below 1000 nM.

For `CC1CN(c2ccc(C(F)(F)F)cn2)CCN1CC(=O)N1CCN(C2CCCCC2)CC1` (stereo not drawn) [Compound 438, 1-[2-(4-cyclohexylpiperazin-1-yl)-2-oxoethyl]-2-methyl-4-[5-(trifluoromethyl)pyridin-2-yl]piperazine], the Ki under setting [4] is below 1000 nM.

As to `O=C(Cc1c(F)cccc1Cl)N1CCN(CC(=O)N2CCN(C3CCC3)CC2)CC1` [Compound 382, 1-[(2-chloro-6-fluorophenyl)acetyl]-4-[2-(4-cyclobutylpiperazin-1-yl)-2-oxoethyl]piperazine], the Ki under setting [4] is below 1000 nM.

Turning to `Cc1ccc(N2CCN(CC(=O)N3CCN(C4CCCCC4)CC3)CC2)cc1C` [Compound 817, 1-cyclohexyl-4-{[4-(3,4-dimethylphenyl)piperazin-1-yl]acetyl}piperazine], the inhibitory constant (Ki) under setting [3] was below 1000 nM.

In the case of `O=C(CN1CCN(c2ccc(C(=O)N3CCCCCC3)cc2)CC1)N1CCN(C2CCC2)CC1` [Compound 317, 1-(4-{4-[2-(4-cyclobutylpiperazin-1-yl)-2-oxoethyl]piperazin-1-yl}benzoyl)azepane], the Ki under setting [4] was below 1000 nM.

Regarding `O=C(CN1CCN(c2cnc(-c3ccc(OC(F)(F)F)cc3)cn2)CC1)N1CCN(C2CCC2)CC1` [Compound 934, 2-{4-[2-(4-cyclobutylpiperazin-1-yl)-2-oxoethyl]piperazin-1-yl}-5-[4-(trifluoromethoxy)phenyl] pyrazine], the Ki under setting [3] was below 1000 nM.

Turning to `COc1ccc(OC)c(-c2ccc(N3CCN(CC(=O)N4CCN(C5CCC5)CC4)CC3)cc2)c1` [Compound 687, 1-cyclobutyl-4-{[4-(2′,5′-dimethoxybiphenyl-4-yl)piperazin-1-yl]acetyl}piperazine], the Ki under setting [5] is below 1000 nM.

For `COc1ccc(CC(=O)N2CCN(CC(=O)N3CCN(C4CCC4)CC3)CC2)c(OC)c1` [Compound 507, 1-cyclobutyl-4-({4-[(2,4-dimethoxyphenyl)acetyl]piperazin-1-yl}acetyl)piperazine], the Ki under setting [1] was below 1000 nM.

As to `CCOc1ccc(-c2ccc(N3CCN(CC(=O)N4CCN(C5CCC5)CC4)CC3)nn2)cc1` [Compound 1034, 3-{4-[2-(4-cyclobutylpiperazin-1-yl)-2-oxoethyl]piperazin-1-yl}-6-(4-ethoxyphenyl)pyridazine], under setting [2], the inhibitory constant (Ki) is below 1000 nM.

On to `COc1ccc(OC)c(-c2ccc(N3CCN(CC(=O)N4CCN(C5CCC5)CC4)CC3)nn2)c1` [Compound 1041, 3-{4-[2-(4-cyclobutylpiperazin-1-yl)-2-oxoethyl]piperazin-1-yl}-6-(2,5-dimethoxyphenyl) pyridazine], for which the Ki under setting [2] was below 1000 nM.

Regarding `CCC(C)N1CCN(C(=O)CN2CCC(N3CCCCCC3)CC2)CC1` (stereo not drawn) [Compound 481, 1-{1-[2-(4-sec-butylpiperazin-1-yl)-2-oxoethyl]piperidin-4-yl}azepane], the Ki under setting [1] is below 1000 nM.

With `COc1ccc(C)cc1-c1ccc(N2CCN(CC(=O)N3CCN(C4CCC4)CC3)CC2)cc1` [Compound 710, 1-cyclobutyl-4-{[4-(2′-methoxy-5′-methylbiphenyl-4-yl)piperazin-1-yl]acetyl}piperazine], under setting [5], the Ki was below 1000 nM.

For `CCN(CC)C1CCN(CC(=O)N2CCN(C3CCCC3)CC2)C1` (stereo not drawn) [Compound 443, 1-[2-(4-cyclopentylpiperazin-1-yl)-2-oxoethyl]-N,N-diethylpyrrolidin-3-amine], the Ki under setting [4] was below 1000 nM.

With `O=C(CN1CCN(c2cnc(Br)cn2)CC1)N1CCN(C2CCC2)CC1` [Compound 983, 2-bromo-5-{4-[2-(4-cyclobutylpiperazin-1-yl)-2-oxoethyl]piperazin-1-yl}pyrazine], the inhibition constant Ki under setting [2] was below 1000 nM.

In the case of `COc1ccc(N2CCN(CC(=O)N3CCN(C4CCC4)CC3)CC2)cc1OC` [Compound 733, 1-cyclobutyl-4-{[4-(3,4-dimethoxyphenyl)piperazin-1-yl]acetyl}piperazine], the Ki under setting [5] was below 1000 nM.
